Experimental findings from ChEMBL document CHEMBL1150913, “Novel cytotoxic cembranoids from the soft coral Sinularia flexibilis” (1998) are described below.

Converted amounts (≈) assume the structure as drawn.

What all share (format): functional
For one experiment, the system named is HT-29. Put plainly: Cytotoxicity against human HT-29 cells after 6 days by MTT assay. The settings on record: HT-29, 144 h, read-out: ED50 (the source's name).
The next experiment concerns KB. Put plainly: Cytotoxicity against human KB cells after 3 days by MTT assay. The settings on record: 72 h, read-out: ED50 (the source's name).
Another experiment deals with P388. Put plainly: Cytotoxicity against mouse P388 cells after 3 days by MTT assay. Particulars: P388, 72 h, read-out: ED50 (the source's name).
For the next experiment, the system named is A549. Put plainly: Cytotoxicity against human A549 cells after 6 days by MTT assay. Particulars: A549, 144 h, read-out: ED50 (the source's name).

On to `C/C1=C\CC[C@@](C)(O)[C@H]2C[C@H](CC[C@](C)(O)[C@H](O)CC1)[C@@H](C)C(=O)O2` [DIHYDROSINUFLEXOLIDE], for which the EC50 is 32.4 µg/mL (≈ 91.4 µM) in the experiment with HT-29, > 50 µg/mL with KB, 3.86 µg/mL (≈ 10.9 µM) in the experiment on P388 and 16.8 µg/mL (≈ 47.4 µM) in the experiment on A549.
With `C=C(C(=O)OC)[C@H]1CC[C@](C)(O)[C@H](O)CC/C(C)=C/CC[C@@](C)(O)[C@@H](O)C1` [SINUFLEXIBILIN], the EC50 in the experiment with HT-29 was determined as 0.22 µg/mL (≈ 0.572 µM); in the experiment on KB, 1.73 µg/mL (≈ 4.5 µM); with P388 it was 0.27 µg/mL (≈ 0.702 µM); in the experiment with A549, 0.72 µg/mL (≈ 1.87 µM).
For the compound `C=C1C(=O)O[C@@H]2C[C@@H]1CC[C@](C)(O)[C@H](O)CC/C(C)=C/CC[C@@]2(C)O` [SINUFLEXOLIDE], the EC50 in the experiment on HT-29 was 0.39 µg/mL (≈ 1.11 µM); with KB it was 0.46 µg/mL (≈ 1.31 µM); in the experiment with P388, 0.16 µg/mL (≈ 0.454 µM); in the experiment with A549 it was 0.68 µg/mL (≈ 1.93 µM).
